Usually IC50 stands for the concentration that gives 50% inhibition.

Test [1] is described as follows: Cytotoxicity against human MHCC97L cells assessed as growth inhibition after 24 hrs by MTT assay. Type of test: functional, cell-based. For orientation: Tetrazolium assays rely on reduction of a dye to a coloured formazan, in cell work by metabolically active cells.
For test [2], the system named is PLC-PRF-5. Briefly: Cytotoxicity against human PLC/PRF/5 cells assessed as growth inhibition after 24 hrs by MTT assay. The settings on record: PLC-PRF-5, 24 h. The class given is functional, cell-based.

On to `C=CCCCCCCCCC(=O)Nc1cc(OC)c2cc1C[C@H]1c3c(cc(OC)c(OC)c3Oc3cc4c(cc3OC)CCN(C)[C@H]4Cc3ccc(cc3)O2)CCN1C`, for which the half-maximal inhibitory concentration (IC50) turned out to be 10.8 µM in test [1] and 11.3 µM in test [2].

As for `COc1cc(NC(=O)CO)c2cc1Oc1ccc(cc1)C[C@H]1c3cc(c(OC)cc3CCN1C)Oc1c(OC)c(OC)cc3c1[C@H](C2)N(C)CC3`, the results for the IC50 in test [1] and in test [2] were 9.09 µM and 10.2 µM, respectively.

For `COc1cc(NC(=O)c2ccccc2)c2cc1Oc1ccc(cc1)C[C@H]1c3cc(c(OC)cc3CCN1C)Oc1c(OC)c(OC)cc3c1[C@H](C2)N(C)CC3`, the IC50 came out at 7.8 µM in test [1] and 9.16 µM in test [2].

With `COC(=O)C(=O)Nc1cc(OC)c2cc1C[C@H]1c3c(cc(OC)c(OC)c3Oc3cc4c(cc3OC)CCN(C)[C@H]4Cc3ccc(cc3)O2)CCN1C`, the IC50 was 2.46 µM in test [1] and 3.72 µM in test [2].

In the case of `COc1cc(NC(=O)c2c(Cl)cc(Cl)cc2Cl)c2cc1Oc1ccc(cc1)C[C@H]1c3cc(c(OC)cc3CCN1C)Oc1c(OC)c(OC)cc3c1[C@H](C2)N(C)CC3`, the IC50 amounted to 4.12 µM in test [1] and 6.54 µM in test [2].

As to `COc1cc(NC(=O)c2cccc3ccccc23)c2cc1Oc1ccc(cc1)C[C@H]1c3cc(c(OC)cc3CCN1C)Oc1c(OC)c(OC)cc3c1[C@H](C2)N(C)CC3`, the IC50 came out at 5.63 µM in test [1] and 5.56 µM in test [2].

Regarding `COc1cc(NC(=O)COC(C)=O)c2cc1Oc1ccc(cc1)C[C@H]1c3cc(c(OC)cc3CCN1C)Oc1c(OC)c(OC)cc3c1[C@H](C2)N(C)CC3`, the values for the IC50 in test [1] and in test [2] were 8.41 µM and 10.2 µM, respectively.

For the compound `COc1cc(NC(=O)/C=C/c2ccccc2)c2cc1Oc1ccc(cc1)C[C@H]1c3cc(c(OC)cc3CCN1C)Oc1c(OC)c(OC)cc3c1[C@H](C2)N(C)CC3`, the figures for the IC50 in test [1] and in test [2] were 7.7 µM and 9.81 µM, respectively.

For `COc1cc(NC(=O)c2ccc(Cl)cc2)c2cc1Oc1ccc(cc1)C[C@H]1c3cc(c(OC)cc3CCN1C)Oc1c(OC)c(OC)cc3c1[C@H](C2)N(C)CC3`, the IC50 in test [1] came out at 10.3 µM; in test [2], 11.9 µM.

Consider `COc1cc(NC(=O)C(Cl)(Cl)Cl)c2cc1Oc1ccc(cc1)C[C@H]1c3cc(c(OC)cc3CCN1C)Oc1c(OC)c(OC)cc3c1[C@H](C2)N(C)CC3`, for which the IC50 is 4.26 µM in test [1] and 3.22 µM in test [2].

For `CNC(=O)c1cc(Oc2ccc(NC(=O)Nc3ccc(Cl)c(C(F)(F)F)c3)cc2)ccn1` [SORAFENIB], the 50% inhibitory concentration (IC50) in test [1] was 34.4 µM; in test [2] it was 29.9 µM.

As for `COc1cc(NC(=O)c2cccs2)c2cc1Oc1ccc(cc1)C[C@H]1c3cc(c(OC)cc3CCN1C)Oc1c(OC)c(OC)cc3c1[C@H](C2)N(C)CC3`, the IC50 stood at 11.9 µM in test [1] and 9.01 µM in test [2].

As to `COc1cc(NC(=O)c2cccc(Cl)c2)c2cc1Oc1ccc(cc1)C[C@H]1c3cc(c(OC)cc3CCN1C)Oc1c(OC)c(OC)cc3c1[C@H](C2)N(C)CC3`, the figures for the IC50 in test [1] and in test [2] were 3.67 µM and 7.63 µM, respectively.

For `COc1cc(NC(=O)c2ccccc2Cl)c2cc1Oc1ccc(cc1)C[C@H]1c3cc(c(OC)cc3CCN1C)Oc1c(OC)c(OC)cc3c1[C@H](C2)N(C)CC3`, the IC50 in test [1] worked out at 2.81 µM; in test [2], 12.1 µM.

Regarding `COc1cc(NC(C)=O)c2cc1Oc1ccc(cc1)C[C@H]1c3cc(c(OC)cc3CCN1C)Oc1c(OC)c(OC)cc3c1[C@H](C2)N(C)CC3`, the half-inhibitory concentration (IC50) in test [1] stood at 12.2 µM; in test [2] it was 12.3 µM.

As to `COc1ccc2cc1Oc1ccc(cc1)C[C@H]1c3cc(c(OC)cc3CCN1C)Oc1c(OC)c(OC)cc3c1[C@H](C2)N(C)CC3` [FANCHININ], the concentration for half-maximal inhibition (IC50) is 15 µM in test [1] and 18.5 µM in test [2].

For the compound `COc1cc(NC(=O)C2CCCO2)c2cc1Oc1ccc(cc1)C[C@H]1c3cc(c(OC)cc3CCN1C)Oc1c(OC)c(OC)cc3c1[C@H](C2)N(C)CC3` (some centres not stated), the IC50 was determined as 5.66 µM in test [1] and 7.32 µM in test [2].

For the compound `COc1cc(NC(=O)C(F)(F)F)c2cc1Oc1ccc(cc1)C[C@H]1c3cc(c(OC)cc3CCN1C)Oc1c(OC)c(OC)cc3c1[C@H](C2)N(C)CC3`, the IC50 in test [1] came to 2.41 µM; in test [2], 2.24 µM.

In the case of `COc1ccc(C(=O)Nc2cc(OC)c3cc2C[C@H]2c4c(cc(OC)c(OC)c4Oc4cc5c(cc4OC)CCN(C)[C@H]5Cc4ccc(cc4)O3)CCN2C)cc1`, the values for the half-maximal inhibitory concentration (IC50) in test [1] and in test [2] were 12 µM and 5.32 µM, respectively.

For `CCCCCC(=O)Nc1cc(OC)c2cc1C[C@H]1c3c(cc(OC)c(OC)c3Oc3cc4c(cc3OC)CCN(C)[C@H]4Cc3ccc(cc3)O2)CCN1C`, the IC50 in test [1] turned out to be 12.6 µM; in test [2] it was 10.3 µM.

As for `COc1cc(NC(=O)OCC(C)C)c2cc1Oc1ccc(cc1)C[C@H]1c3cc(c(OC)cc3CCN1C)Oc1c(OC)c(OC)cc3c1[C@H](C2)N(C)CC3`, the IC50 amounted to 1.4 µM in test [1] and 4.66 µM in test [2].

As for `C=CC(=O)Nc1cc(OC)c2cc1C[C@H]1c3c(cc(OC)c(OC)c3Oc3cc4c(cc3OC)CCN(C)[C@H]4Cc3ccc(cc3)O2)CCN1C`, the IC50 amounted to 10.4 µM in test [1] and 10.7 µM in test [2].

For the compound `COc1cc(NC(=O)c2ccc([N+](=O)[O-])o2)c2cc1Oc1ccc(cc1)C[C@H]1c3cc(c(OC)cc3CCN1C)Oc1c(OC)c(OC)cc3c1[C@H](C2)N(C)CC3`, the IC50 was determined as 2.11 µM in test [1] and 2.5 µM in test [2].

Regarding `COc1cc(NC(=O)CCCl)c2cc1Oc1ccc(cc1)C[C@H]1c3cc(c(OC)cc3CCN1C)Oc1c(OC)c(OC)cc3c1[C@H](C2)N(C)CC3`, the 50% inhibitory concentration (IC50) was determined as 9.21 µM in test [1] and 6.28 µM in test [2].

Consider `COc1cc(NC(=O)C(C)(C)C)c2cc1Oc1ccc(cc1)C[C@H]1c3cc(c(OC)cc3CCN1C)Oc1c(OC)c(OC)cc3c1[C@H](C2)N(C)CC3`, for which the IC50 in test [1] came to 6.4 µM; in test [2] it was 5.37 µM.

Take `COc1cc(NC(=O)c2ccc(C(F)(F)F)cc2)c2cc1Oc1ccc(cc1)C[C@H]1c3cc(c(OC)cc3CCN1C)Oc1c(OC)c(OC)cc3c1[C@H](C2)N(C)CC3`: the IC50 came to 8.41 µM in test [1] and 9.49 µM in test [2].

Turning to `COc1cc(NC(=O)c2ccc(Br)cc2)c2cc1Oc1ccc(cc1)C[C@H]1c3cc(c(OC)cc3CCN1C)Oc1c(OC)c(OC)cc3c1[C@H](C2)N(C)CC3`, the IC50 in test [1] came out at 4.4 µM; in test [2] it was 7.76 µM.

With `COc1cc(NC(=O)c2ccc(Cl)c(Cl)c2)c2cc1Oc1ccc(cc1)C[C@H]1c3cc(c(OC)cc3CCN1C)Oc1c(OC)c(OC)cc3c1[C@H](C2)N(C)CC3`, the IC50 in test [1] is 3.81 µM; in test [2], 6.82 µM.

For `COc1cc(NC(=O)CCCCl)c2cc1Oc1ccc(cc1)C[C@H]1c3cc(c(OC)cc3CCN1C)Oc1c(OC)c(OC)cc3c1[C@H](C2)N(C)CC3`, the IC50 in test [1] stood at 9.76 µM; in test [2], 7.22 µM.

With `COc1cc(NC(=O)c2ccoc2)c2cc1Oc1ccc(cc1)C[C@H]1c3cc(c(OC)cc3CCN1C)Oc1c(OC)c(OC)cc3c1[C@H](C2)N(C)CC3`, the IC50 stood at 3.22 µM in test [1] and 1.89 µM in test [2].

In the case of `COc1cc(NC(=O)C=C(C)C)c2cc1Oc1ccc(cc1)C[C@H]1c3cc(c(OC)cc3CCN1C)Oc1c(OC)c(OC)cc3c1[C@H](C2)N(C)CC3`, the IC50 came out at 6.31 µM in test [1] and 7.63 µM in test [2].

As for `COc1cc(NC(=O)c2ccc(Cl)cc2Cl)c2cc1Oc1ccc(cc1)C[C@H]1c3cc(c(OC)cc3CCN1C)Oc1c(OC)c(OC)cc3c1[C@H](C2)N(C)CC3`, the figures for the IC50 in test [1] and in test [2] were 1.7 µM and 8.24 µM, respectively.

On to `COc1cc(NC(=O)c2cc[nH]n2)c2cc1Oc1ccc(cc1)C[C@H]1c3cc(c(OC)cc3CCN1C)Oc1c(OC)c(OC)cc3c1[C@H](C2)N(C)CC3`, for which the 50% inhibitory concentration (IC50) is 4.17 µM in test [1] and 2.24 µM in test [2].

Regarding `COc1cc(NC(=O)C2CC=CC2)c2cc1Oc1ccc(cc1)C[C@H]1c3cc(c(OC)cc3CCN1C)Oc1c(OC)c(OC)cc3c1[C@H](C2)N(C)CC3`, the IC50 was found to be 5.76 µM in test [1] and 6.42 µM in test [2].

For `COc1cc(NC(=O)CCBr)c2cc1Oc1ccc(cc1)C[C@H]1c3cc(c(OC)cc3CCN1C)Oc1c(OC)c(OC)cc3c1[C@H](C2)N(C)CC3`, the IC50 is 7.86 µM in test [1] and 6.34 µM in test [2].

As to `COc1cc(NC(=O)C2CC2)c2cc1Oc1ccc(cc1)C[C@H]1c3cc(c(OC)cc3CCN1C)Oc1c(OC)c(OC)cc3c1[C@H](C2)N(C)CC3`, the IC50 in test [1] amounted to 7.68 µM; in test [2], 6.45 µM.

(Values after ChEMBL document CHEMBL4004821, “Design and synthesis of novel tetrandrine derivatives as potential anti-tumor agents against human hepatocellular carcinoma” (Eur J Med Chem, 2017).)
